Converted amounts (≈) assume the structure as drawn. One block for each compound: values may come before it. The source made the active and inactive calls. The calls are words filed in the database; no cut-off is given here.
Legend:
in vivo = conditions: New Zealand, rabbit, im, 120 mg/kg
Description: Cmax in New Zealand rabbit meningitis model at 120 mg/kg, im

[1] = AUC in C57BL/6 mouse pneumonia model at 30 mg/kg, im; format: ADME, organism-based; parameters: dose 30 mg/kg, route intramuscular; conditions: in vivo
[2] = Half life in C57BL/6 mouse pneumonia model at 30 mg/kg, im; format: ADME, organism-based; parameters: dose 30 mg/kg, route intramuscular; conditions: in vivo
[3] = AUC in New Zealand rabbit meningitis model at 120 mg/kg, im; format: ADME, organism-based, Oryctolagus cuniculus; parameters: dose 120 mg/kg, route intramuscular; conditions: in vivo
[4] = Cmax in C57BL/6 mouse pneumonia model at 30 mg/kg, im; format: ADME, organism-based; parameters: dose 30 mg/kg, route intramuscular; conditions: in vivo
[5] = Half life in New Zealand rabbit meningitis model at 120 mg/kg, im; format: ADME, organism-based, Oryctolagus cuniculus; parameters: dose 120 mg/kg, route intramuscular; conditions: in vivo
Acinetobacter baumannii [6] = experiment: Antimicrobial activity against Acinetobacter baumannii 940 after 24 hrs by time-kill assay; format: functional, organism-based
Acinetobacter baumannii [7] = experiment: Antimicrobial activity against Acinetobacter baumannii infected in C57BL/6 mouse model assessed as reduction in bacterial count in blood at total dose of 120 mg/kg/day, im administered as four divided doses after 72 hrs; format: functional; parameters: scale not given: the % may be the effect or the level left; conditions: route intramuscular
Acinetobacter baumannii [8] = experiment: Antimicrobial activity against Acinetobacter baumannii 940; format: functional
Acinetobacter baumannii [9] = experiment: Antimicrobial activity against Acinetobacter baumannii 506; format: functional
Acinetobacter baumannii [10] = experiment: Antimicrobial activity against Acinetobacter baumannii 506 after 24 hrs by time-kill assay; format: functional, organism-based
Acinetobacter baumannii [11] = experiment: Antimicrobial activity against Acinetobacter baumannii 1327; format: functional
[12] = Ratio of AUC to MIC for Acinetobacter baumannii 1327 in pharmacokinetic-pharmacodynamic C57BL/6 mouse pneumonia model at 30 mg/kg, im; format: functional; conditions: route intramuscular
[13] = T>MIC in Acinetobacter baumannii infected C57BL/6 mouse pneumonia model at 30 mg/kg, im; format: functional; conditions: route intramuscular
Acinetobacter baumannii [14] = experiment: Antibacterial activity against Acinetobacter baumannii infected in C57BL/6 mouse model assessed as survival rate at total dose of 120 mg/kg/day, im administered as four divided doses measured after 72 hrs post last dose relative to control; format: functional; conditions: route intramuscular
Acinetobacter baumannii [15] = experiment: Antimicrobial activity against Acinetobacter baumannii 1417; format: functional
Acinetobacter baumannii [16] = experiment: Antimicrobial activity against Acinetobacter baumannii clinical isolate; format: functional
[17] = T>MIC in Acinetobacter baumannii infected New Zealand rabbit meningitis model at 120 mg/kg, im; format: functional; conditions: route intramuscular
[18] = Ratio of Cmax to MIC for Acinetobacter baumannii 1327 in pharmacokinetic-pharmacodynamic C57BL/6 mouse pneumonia model at 30 mg/kg, im; format: functional; conditions: route intramuscular
Acinetobacter baumannii [19] = experiment: Antimicrobial activity against Acinetobacter baumannii infected in C57BL/6 mouse model assessed as reduction in bacterial count per gram of lung at total dose of 120 mg/kg/day, im administered as four divided doses after 72 hrs (RVb = 10.6+/-0.27); format: functional, organism-based
[20] = Ratio of AUC to MIC for Acinetobacter baumannii 1327 in pharmacokinetic-pharmacodynamic New Zealand rabbit meningitis model at 120 mg/kg, im; format: functional; conditions: route intramuscular
[21] = Ratio of Cmax to MIC for Acinetobacter baumannii 1327 in pharmacokinetic-pharmacodynamic New Zealand rabbit meningitis model at 120 mg/kg, im; format: functional; conditions: route intramuscular
Acinetobacter baumannii [22] = experiment: Antimicrobial activity against Acinetobacter baumannii 1417 after 24 hrs by time-kill assay; format: functional, organism-based
Acinetobacter baumannii [23] = experiment: Antimicrobial activity against Acinetobacter baumannii 1327 after 24 hrs by time-kill assay; format: functional, organism-based
Acinetobacter baumannii [24] = experiment: Antibacterial activity against Acinetobacter baumannii 1327 infected in New Zealand rabbit meningitis model assessed as reduction in bacterial count in CSF at 25 mg/kg, iv measured after 4 hrs of last dose (RVb = 5.2); format: functional
Acinetobacter baumannii [25] = experiment: Antibacterial activity against Acinetobacter baumannii infected in C57BL/6 mouse model assessed as survival rate at total dose of 100 mg/kg/day, ip administered as four divided doses measured after 72 hrs post last dose; format: functional; conditions: route intraperitoneal
[26] = Cmax in C57BL/6 mouse pneumonia model at 25 mg/kg, ip; format: ADME, organism-based; parameters: dose 25 mg/kg, route intraperitoneal; conditions: in vivo
Acinetobacter baumannii [27] = experiment: Antibacterial activity against Acinetobacter baumannii 1327 infected in New Zealand rabbit meningitis model assessed as reduction in bacterial count in CSF at 25 mg/kg, iv measured after 6 hrs of last dose (RVb = 5.5); format: functional
[28] = Cmax in New Zealand rabbit meningitis model at 25 mg/kg, iv; format: ADME, organism-based, Oryctolagus cuniculus; parameters: dose 25 mg/kg, route intravenous; conditions: in vivo
Oryctolagus cuniculus = experiment: Antiinflammatory activity in Acinetobacter baumannii 1327-infected New Zealand rabbit meningitis model assessed as in WBC count at 25 mg/kg, iv after 6 hrs (RVb = 1 cells/ul); format: functional
[29] = T>MIC in Acinetobacter baumannii infected C57BL/6 mouse pneumonia model at 25 mg/kg, iv; format: functional
[30] = AUC in C57BL/6 mouse pneumonia model at 25 mg/kg, ip; format: ADME, organism-based; parameters: dose 25 mg/kg, route intraperitoneal; conditions: in vivo
Acinetobacter baumannii [31] = experiment: Antimicrobial activity against Acinetobacter baumannii infected in C57BL/6 mouse model assessed as reduction in bacterial count per gram of lung at total dose of 100 mg/kg/day, ip administered as four divided doses after 72 hrs (RVb = 10.6+/-0.27); format: functional, organism-based
[32] = AUC in New Zealand rabbit meningitis model at 25 mg/kg, iv; format: ADME, organism-based, Oryctolagus cuniculus; parameters: dose 25 mg/kg, route intravenous; conditions: in vivo
[33] = T>MIC in Acinetobacter baumannii infected New Zealand rabbit meningitis model at 25 mg/kg, iv; format: functional
Acinetobacter baumannii [34] = experiment: Antimicrobial activity against Acinetobacter baumannii infected in C57BL/6 mouse model assessed as reduction in bacterial count in blood at total dose of 100 mg/kg/day, ip administered as four divided doses after 72 hrs; format: functional; parameters: scale not given: the % may be the effect or the level left; conditions: route intraperitoneal
Acinetobacter baumannii [35] = experiment: Antibacterial activity against Acinetobacter baumannii 1327 infected in New Zealand rabbit meningitis model assessed as reduction in bacterial count in CSF at 25 mg/kg, iv measured after 2 hrs of last dose (RVb = 5.1); format: functional

Cmax (in vivo): 25400 ng/mL
AUC [1]: 11300 ng·h/mL
half-life [2]: 0.26 h
AUC [3]: 50400 ng·h/mL
Cmax [4]: 23200 ng/mL
half-life [5]: 1.74 h
Structure (SMILES): C[C@@H](O)[C@H]1C(=O)N2C(C(=O)O)=C(SCCN=CN)C[C@H]12 [IMIPENEM ANHYDROUS]

Structure (SMILES): C[C@@H](O)[C@H]1C(=O)N2C(C(=O)O)=C(SCCNC=N)C[C@H]12 [IMIPENEM ANHYDROUS]
Activity (Acinetobacter baumannii [6]): Active
Activity (Acinetobacter baumannii [7]): 30.8%
MBC (Acinetobacter baumannii [8]): 32 µg/mL (≈ 107 µM)
MIC (Acinetobacter baumannii [8]): 32 µg/mL (≈ 107 µM)
MBC (Acinetobacter baumannii [9]): 32 µg/mL (≈ 107 µM)
MIC (Acinetobacter baumannii [9]): 32 µg/mL (≈ 107 µM)
Activity (Acinetobacter baumannii [10]): Active
MBC (Acinetobacter baumannii [11]): 32 µg/mL (≈ 107 µM)
MIC (Acinetobacter baumannii [11]): 32 µg/mL (≈ 107 µM)
Ratio [12]: 0.35
T>MIC [13]: 0 h
survival at 120 mg/kg/day (Acinetobacter baumannii [14]): 28.6%
MBC (Acinetobacter baumannii [15]): 32 µg/mL (≈ 107 µM)
MIC (Acinetobacter baumannii [15]): 32 µg/mL (≈ 107 µM)
MIC (Acinetobacter baumannii [16]): ≥ 64 µg/mL
T>MIC [17]: 0 h
Ratio [18]: 0.73
Activity (Acinetobacter baumannii [19]): Active
Ratio [20]: 1.58
Ratio [21]: 0.79
Activity (Acinetobacter baumannii [22]): Active
Activity (Acinetobacter baumannii [23]): Active

Structure (SMILES): CO[C@H]1/C=C/O[C@@]2(C)Oc3c(C)c(O)c4c(O)c(c(/C=N/N5CCN(C)CC5)c(O)c4c3C2=O)NC(=O)/C(C)=C\C=C\[C@H](C)[C@H](O)[C@@H](C)[C@@H](O)[C@@H](C)[C@H](OC(C)=O)[C@@H]1C [RIFAMPIN]
Activity (Acinetobacter baumannii [24]): 4.5 log10CFU/ml
survival at 100 mg/kg/day (Acinetobacter baumannii [25]): 71.4%
Activity (Acinetobacter baumannii [6]): Active
MBC (Acinetobacter baumannii [8]): 4 µg/mL (≈ 4.86 µM)
MIC (Acinetobacter baumannii [8]): 4 µg/mL (≈ 4.86 µM)
MBC (Acinetobacter baumannii [9]): 4 µg/mL (≈ 4.86 µM)
MIC (Acinetobacter baumannii [9]): 4 µg/mL (≈ 4.86 µM)
Activity (Acinetobacter baumannii [10]): Active
MBC (Acinetobacter baumannii [11]): 8 µg/mL (≈ 9.72 µM)
MIC (Acinetobacter baumannii [11]): 4 µg/mL (≈ 4.86 µM)
Cmax [26]: 15800 ng/mL
Activity (Acinetobacter baumannii [27]): 3.5 log10CFU/ml
MBC (Acinetobacter baumannii [15]): 8 µg/mL (≈ 9.72 µM)
MIC (Acinetobacter baumannii [15]): 8 µg/mL (≈ 9.72 µM)
Cmax [28]: 16600 ng/mL
Activity (Oryctolagus cuniculus): 8.2%
T>MIC [29]: 7.5 h
AUC [30]: 24800 ng·h/mL
Activity (Acinetobacter baumannii [31]): Active
AUC [32]: 40300 ng·h/mL
T>MIC [33]: 6.54 h
Activity (Acinetobacter baumannii [34]): 78.6%
Activity (Acinetobacter baumannii [22]): Active
Activity (Acinetobacter baumannii [35]): 5.1 log10CFU/ml
Activity (Acinetobacter baumannii [23]): Active
